Assays:
D(2) dopamine receptor = D(2) dopamine receptor (Rattus norvegicus, UniProt P61169); experiment: Evaluated in vitro for the affinity towards Dopamine receptor D2 of rat striatal tissue
[1] = Maximum […] (Bmax) was determined.; format: ADME, organism-based; settings: in vivo

D(2) dopamine receptor, sequence (P61169 whole entry): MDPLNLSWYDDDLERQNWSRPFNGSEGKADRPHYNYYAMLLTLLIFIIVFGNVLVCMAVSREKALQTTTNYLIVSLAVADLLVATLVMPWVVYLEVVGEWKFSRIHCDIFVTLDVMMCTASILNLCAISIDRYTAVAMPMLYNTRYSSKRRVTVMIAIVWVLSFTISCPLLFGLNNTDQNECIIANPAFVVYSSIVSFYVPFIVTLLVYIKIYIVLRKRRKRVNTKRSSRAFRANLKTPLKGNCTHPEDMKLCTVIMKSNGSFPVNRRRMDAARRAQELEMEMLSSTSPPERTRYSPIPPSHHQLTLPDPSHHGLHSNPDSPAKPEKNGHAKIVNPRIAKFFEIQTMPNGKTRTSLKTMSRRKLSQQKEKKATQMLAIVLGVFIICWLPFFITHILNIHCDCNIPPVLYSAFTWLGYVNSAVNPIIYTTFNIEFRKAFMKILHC

Row | Kd (D(2) dopamine receptor) [pM] | SMILES | Bmax [1] [pM/g]
1 | 3000 | CCN1CCC[C@H]1CNC(=O)c1cc(I)ccc1OC [IODOPRIDE] | –
2 | 1500 | CCN1CCC[C@H]1CNC(=O)c1c(OC)ccc(S(N)(=O)=O)c1I [IODOSULPIRIDE] | –
3 | 430 | CCN1CCC[C@H]1CNC(=O)c1c(OC)ccc(I)c1O [IOLOPRIDE] | –

Row | SMILES | Kd (D(2) dopamine receptor) [pM] | Bmax [1] [pM/g]
4 | CN1CN(c2ccccc2)C2(CCN(CCCC(=O)c3ccc(F)cc3)CC2)C1=O [MESPIPERONE] | 97 | 16.6

Reference: ChEMBL document CHEMBL1125116 (J Med Chem, 1990)
